Laboratory results from article PMC7253423, “Quassinoid analogs with enhanced efficacy for treatment of hematologic malignancies target the PI3Kγ isoform” (Communications Biology, 2020).
Values joined by “and” are separate entries in the source; they are usually repeats but may differ in a detail not shown here. Equal entries are not always repeated.

Columns and labels:
Raji cells [1] = assay: Cell viability assay (CellTiter-Glo luminescence); assay type: cell-based, human; settings: for Cell viability (luminescence): duplicates
Protocol: (§1) 5000 cells as indicated were cultured in 96-well plate with 100 μl of media. […] After treatment, the cells were incubated with 100 μl buffer for 10 min at room temperature following the instructions of CellTiter-Glo kit (Promega, Madison, WI). Luminescence was detected using a multi-mode reader Cytation 5 (BioTek, Winooski, VT). […] Two independent experiments done in duplicates were performed.

SU-DHL-4 cells [2] = assay: Cell viability assay (CellTiter-Glo luminescence); assay type: cell-based, human
Protocol: as §1

[3] = system: hematologic malignancies derived cell lines; assay: Cell viability assay, panel of hematologic malignancy derived cell lines; assay type: cell-based, human; settings: 100 nM, 72 h, lymphoma, leukemia and multiple myeloma cell lines (13 cell lines for analogs)
Protocol: (§2) 5000 cells as indicated were cultured in 96-well plate with 100 μl of media. On the next day, Brusatol or associated analogs were added once to the cells without media change. After treatment, the cells were incubated with 100 μl buffer for 10 min at room temperature following the instructions of CellTiter-Glo kit (Promega, Madison, WI). Luminescence was detected using a multi-mode reader Cytation 5 (BioTek, Winooski, VT). […] Two independent experiments done in duplicates were performed.

Raji cells [4] = assay: Western blot of PI3K/AKT signaling proteins; assay type: cell-based, human
Protocol: (§3) Western blot analyses were performed as previously described. Briefly, total cell lysates were separated by SDS-PAGE gel and transferred to nitrocellulose membrane. The membranes were blocked with 5% non-fat milk, probed with specific antibodies, and visualized using the Odyssey scanner (LiCor Inc., Lincoln, NE).

MOLM14 xenografts = assay: In vivo tumorigenic assay using xenografts, tumor size; parameters: species or system NOD/SCID mice; settings: for tumor size (Fig 5d&5e), individual mice: MOLM14 xenograft
Protocol: Six-week-old male NOD.CB17-Prkdc^scid/J (NOD/SCID) mice (Jackson Labs, Bar Harbor, ME, USA) were used as the human-in-mouse xeno-transplantation model. MOLM14 cells (1 × 10^7 cells) were injected into the subcutaneous space on the left flank of the mice. […] Body weight and tumor size were monitored before every injection. After treatment for 2 weeks, the mice were euthanized by CO2 inhalation and the tumors were carefully excised. The tumor volume (mm^3) was measured and calculated using the formula (a × b × b)/2 (a, the largest diameter of two measurements; b, the smallest diameter of two measurements).

[5] = In vivo toxicity test, survival rate; parameters: species or system NOD/SCID mice; settings: for survival event status per mouse (Fig 6i; 1 = event/death, 0 = censored): 10mg/kg
Protocol: The survival rate was recorded to monitor the tolerance of the compounds in these mice.

K562 cells [6] = assay: Cell viability assay (CellTiter-Glo luminescence); assay type: cell-based, human; settings: K562, 100nM, 72 hours
Protocol: as §1

LCL1 cells = assay: Cell viability assay (CellTiter-Glo luminescence); assay type: cell-based, human; settings: 72 h, duplicates
Protocol: After treatment, the cells were incubated with 100 μl buffer for 10 min at room temperature following the instructions of CellTiter-Glo kit (Promega, Madison, WI). Luminescence was detected using a multi-mode reader Cytation 5 (BioTek, Winooski, VT). […] Two independent experiments done in duplicates were performed.

[7] = system: PDX-129 (B-cell Follicular lymphoma); assay: Cell viability assay in patient-derived xenograft cells; assay type: cell-based, human; settings: PDX-129, different concentrations, 72 h
Protocol: as §2

[8] = system: PDX-223 (Diffuse large B cell lymphoma); assay: as above; assay type: cell-based, human; settings: PDX-223, different concentrations, 72 h
Protocol: as §2

[9] = system: PDX-255 (Burkitt's lymphoma); assay: as above; assay type: cell-based, human; settings: PDX-255, different concentrations, 72 h
Protocol: as §2

HL-60 cells = assay: Cell cycle assay (PI staining, flow cytometry); assay type: cell-based, human; settings: HL-60, 100 nM, 48 h
Protocol: (§4) Five million cells were harvested, fixed with 80% ethanol for 2 h or overnight at −20 °C, then washed with PBS and incubated with Propidium iodide (PI) staining buffer (0.5 mg/ml propidium iodide in PBS with 50 μg/ml RNase A) for 30 min at room temperature. The stained cells were resuspended in PBS and analyzed on a FACSCalibur system (Becton Dickinson, San Jose, CA, USA) using FlowJo software (TreeStar, San Carlos, CA, USA).

K562 cells [10] = assay: Cell cycle assay (PI staining, flow cytometry); assay type: cell-based, human; settings: K562, 100 nM, 48 h
Protocol: as §4

Raji cells [11] = assay: Cell cycle assay (PI staining, flow cytometry); assay type: cell-based, human; settings: 100 nM, 48 h
Protocol: as §4

SU-DHL-4 cells [12] = assay: Cell cycle assay (PI staining, flow cytometry); assay type: cell-based, human; settings: SU-DHL-4, 100 nM, 48 h
Protocol: as §4

[13] = system: PIK3CG knock-out Raji cells; assay: Western blot of PI3K/AKT associated proteins in knock-out cells; assay type: cell-based, human; settings: 100 nM, 72 h
Protocol: as §3
Oligos were obtained from Integrated DNA Technologies (IDT; Coralville, IA, USA) and cloned into the lentiviral vector lentiCRISPR v2 (Addgene #52961)[66]. Lentivirus production and transduction have been described previously. Here, Raji cells were transduced with a lentivirus harboring lentiCRISPR v2 vector or a construct containing the guide sequence ([…]) against PIK3CG gene. At 48 h post-transduction, cells were selected with puromycin and harvested to determine PIK3CG expression with western blot.

[14] = Raji, 0, 50 nM, 100 nM, 0, 12 h, 24 h

## COC(=O)C12OCC34C(CC5C(C)=C(OC(=O)CNC(=O)OC(C)(C)C)C(=O)CC5(C)C3C(O)C1O)OC(=O)C(OC(=O)C=C(C)C)C24 (centres unmarked) [#15]
Raji cells [1]; Homo sapiens, 72 h
  IC50: 92.9 nM
Raji cells [1]; Homo sapiens, read-out: relative cell viability (Fig 6f), replicates, Raji, Con. 0.00244141 μM, fraction of 0 μM control
  viability at 0.00244141 µM: 120%
Raji cells [1]; Homo sapiens, read-out: relative cell viability (Fig 6f), replicates, Raji, Con. 0.0390625 μM, fraction of 0 μM control
  viability at 0.0390625 µM: 63.6%
Raji cells [1]; Homo sapiens, read-out: relative cell viability (Fig 6f), replicates, Raji, Con. 0.15625 μM, fraction of 0 μM control
  viability at 0.15625 µM: 25.8%
Raji cells [1]; Homo sapiens, read-out: relative cell viability (Fig 6f), replicates, Raji, Con. 0.625 μM, fraction of 0 μM control
  viability at 0.625 µM: 10.3%
Raji cells [1]; Homo sapiens, read-out: relative cell viability (Fig 6f), replicates, Raji, Con. 10 μM, fraction of 0 μM control
  viability at 10 µM: 5.59%
SU-DHL-4 cells [2]; Homo sapiens, SU-DHL-4, 144 h, read-out: relative cell viability (Fig 6d), replicates, SU-DHL-4, Con. 0.00244141 μM, fraction of 0 μM control
  viability at 0.00244141 µM: 90.7%
SU-DHL-4 cells [2]; Homo sapiens, SU-DHL-4, 144 h, read-out: relative cell viability (Fig 6d), replicates, SU-DHL-4, Con. 0.0390625 μM, fraction of 0 μM control
  viability at 0.0390625 µM: 35.2%
SU-DHL-4 cells [2]; Homo sapiens, SU-DHL-4, 144 h, read-out: relative cell viability (Fig 6d), replicates, SU-DHL-4, Con. 0.15625 μM, fraction of 0 μM control
  viability at 0.15625 µM: 13.9%
SU-DHL-4 cells [2]; Homo sapiens, SU-DHL-4, 144 h, read-out: relative cell viability (Fig 6d), replicates, SU-DHL-4, Con. 0.625 μM, fraction of 0 μM control
  viability at 0.625 µM: 7.7%
SU-DHL-4 cells [2]; Homo sapiens, SU-DHL-4, 144 h, read-out: relative cell viability (Fig 6d), replicates, SU-DHL-4, Con. 10 μM, fraction of 0 μM control
  viability at 10 µM: 4.89%
[3]
  inhibition of cell viability in panel of cell lines: significantly inhibit
Raji cells [4]; [14]
  suppression of AKT1, GSK3, and mTOR levels: largely similar to Brusatol
MOLM14 xenografts; 2 mg/kg intraperitoneally three times per week, 2 weeks, vs PBS control
  tumor size, inhibitory response: strong and rapid inhibitory response
MOLM14 xenografts; 0d
  tumor size (Fig 5d&5e), individual mice: 78.7304 and 93.4671 and 63.7324 and 75.8678 and 67.9005 and 67.4325
MOLM14 xenografts; 2d
  tumor size (Fig 5d&5e), individual mice: 74.0736 and 114.773 and 91.676 and 153.055 and 77.875 and 106.489
MOLM14 xenografts; 4d
  tumor size (Fig 5d&5e), individual mice: 75.6994 and 102.99 and 96.7244 and 124.841 and 62.8883 and 83.9808
MOLM14 xenografts; 6d
  tumor size (Fig 5d&5e), individual mice: 103.463 and 91.5117 and 52.853 and 252.562 and 146.711 and 106.359
MOLM14 xenografts; 8d
  tumor size (Fig 5d&5e), individual mice: 91.2302 and 210.386 and 191.93 and 161.391 and 92.482 and 87.983
MOLM14 xenografts; 10d
  tumor size (Fig 5d&5e), individual mice: 119.98 and 398.721 and 249.328 and 242.913 and 135.818 and 159.498
MOLM14 xenografts; 12d
  tumor size (Fig 5d&5e), individual mice: 236.553 and 558.264 and 472.199 and 496.746 and 222.458 and 242.483
[5]; 10 mg/kg intraperitoneally every other day, monitored 24 days, 4 mice per group
  toxicity in vivo (survival): obviously lethal for the majority of mice within the first 4 days
[5]; Days Post-treatment 2
  survival event status per mouse (Fig 6i; 1 = event/death, 0 = censored): 1
[5]; Days Post-treatment 3
  survival event status per mouse (Fig 6i; 1 = event/death, 0 = censored): 1
[5]; Days Post-treatment 4
  survival event status per mouse (Fig 6i; 1 = event/death, 0 = censored): 1

## Brusatol
K562 cells [6]; experiment of Fig 3a
  killing: more than 90%
K562 cells [6]; independent experiment of Fig 3b
  killing: approximately 50%
Raji cells [1]; 100 nM, 48 h post-treatment
  inhibition of viability (cells inhibited): more than 80%
Raji cells [1]; cell number 0, 100 nM, 72 h
  Cell viability (luminescence): 0.9927 and 1.007
Raji cells [1]; cell number 625, 100 nM, 72 h
  Cell viability (luminescence): 3.94 and 4.0527
Raji cells [1]; cell number 1250, 100 nM, 72 h
  Cell viability (luminescence): 7.303 and 7.093
Raji cells [1]; cell number 2500, 100 nM, 72 h
  Cell viability (luminescence): 8.911 and 8.321
Raji cells [1]; cell number 5000, 100 nM, 72 h
  Cell viability (luminescence): 13.6562 and 12.7698
Raji cells [1]; cell number 10000, 100 nM, 72 h
  Cell viability (luminescence): 11.8436 and 13.905
SU-DHL-4 cells [2]; SU-DHL-4, 100 nM, 48 h post-treatment
  inhibition of viability (cells inhibited): more than 80%
LCL1 cells; LCL1, cell number 0, 100 nM
  Cell viability (luminescence): 0.8054 and 1.195
LCL1 cells; LCL1, cell number 625, 100 nM
  Cell viability (luminescence): 1.142 and 1.405
LCL1 cells; LCL1, cell number 1250, 100 nM
  Cell viability (luminescence): 2.424 and 2.078
LCL1 cells; LCL1, cell number 2500, 100 nM
  Cell viability (luminescence): 3.232 and 2.818
LCL1 cells; LCL1, cell number 5000, 100 nM
  Cell viability (luminescence): 3.613 and 2.736
LCL1 cells; LCL1, cell number 10000, 100 nM
  Cell viability (luminescence): 4.594 and 3.987
[7]
  inhibition of cell viability: inhibited
[8]
  inhibition of cell viability: inhibited
[9]
  inhibition of cell viability: inhibited
[3]
  inhibition of cell viability in panel of cell lines: broad and potent inhibitory effects
HL-60 cells
  Sub-G1 population: 7.63%
K562 cells [10]
  Sub-G1 population: 3.19%
Raji cells [11]
  Sub-G1 population: 68.4%
SU-DHL-4 cells [12]
  Sub-G1 population: 67.9%
Raji cells [4]; [14]
  protein expression of AKT1, GSK3, and mTOR: substantially reduced
Raji cells [4]; Raji, Fig. 2h
  levels of AKT1 and GSK3 proteins: decreased
[13]
  AKT1 level: no obvious decrease
MOLM14 xenografts; 0d
  tumor size (Fig 5d&5e), individual mice: 79.6409 and 170.904 and 81.1118 and 93.0315 and 105.314 and 98.3496
MOLM14 xenografts; 2d
  tumor size (Fig 5d&5e), individual mice: 114.921 and 89.4339 and 85.1926 and 118.807 and 122.531 and 72.1684
MOLM14 xenografts; 4d
  tumor size (Fig 5d&5e), individual mice: 71.6608 and 87.7482 and 91.4458 and 96.2719 and 66.2604 and 63.9219
MOLM14 xenografts; 6d
  tumor size (Fig 5d&5e), individual mice: 86.9292 and 188.062 and 142.989 and 148.569 and 65.5816 and 390.002
MOLM14 xenografts; 8d
  tumor size (Fig 5d&5e), individual mice: 191.246 and 199.336 and 280.113 and 250.93 and 138.38 and 152.733
MOLM14 xenografts; 10d
  tumor size (Fig 5d&5e), individual mice: 255.462 and 401.539 and 386.529 and 187.744 and 278.266
MOLM14 xenografts; 12d
  tumor size (Fig 5d&5e), individual mice: 394.032 and 649.634 and 755.109 and 281.476 and 493.005
